According to ChEMBL document CHEMBL5356947, “Mitochondria-targeted biotin-conjugated BODIPYs for cancer imaging and therapy” (RSC Med Chem, 2023):

Legend:
[1] = Photosensitizing ability of the compound in MeOH assessed as singlet oxygen generation at 408 nm measured upto 120 sec by DPBF based assay; format: functional
[2] = Fluorescence property of the compound assessed as fluorescence quantum yield in EtOH; format: physicochemical

Activity [2] | Compound | Activity [1]
 | O=C1OC2(c3cc(I)c(O)c(I)c3Oc3c2cc(I)c(O)c3I)c2c(Cl)c(Cl)c(Cl)c(Cl)c21 | 0.75
0.95 | CC/N=c1/cc2oc3cc(NCC)c(C)cc3c(-c3ccccc3C(=O)OCC)c-2cc1C.Cl | 
